Test results taken from US6498195B2, “Use of 1-propanone-1-(2,4-dihydroxyphenyl)-3-hydroxy-3-(4′-hydroxyphenyl) as an anticarcinogenic agent” (Rutgers, The State University of New Jersey, priority 2000, dated 2002).
pIC50: −log10 of the molar value. Read-outs that look alike come from different tables or passages of the source.

Experiments:
bcl-2 = experiment: Bcl-2 expression and phosphorylation assay (Western blot mobility shift); assay type: cell-based; details: for bcl-2 phosphorylation: immunoblotting, slower migrating band vs vehicle control, cell line not stated
Experimental: Analysis of bcl-2 protein expression was performed using a Western blot assay as previously described (Haldar, S. et al. 1996. Cancer Res. 56:1253; Haldar, S. et al. 1995. Proc. Natl. Acad. Sci. USA 92:4507-4511). Protein identification was made using a monoclonal bcl-2 primary antibody (DAKO Corporation) and secondary goat anti-mouse horseradish peroxidase conjugated antibody (Bio-Rad Laboratories, Richmond, CA). The phosphorylation of bcl-2 was determined by mobility shifts in the Western bolt as described by Haldar (Haldar, S. et al. 1996. Cancer Res. 56:1253; Haldar, S. et al. 1995. Proc. Natl. Acad. Sci. USA 92:4507-4511).

microtubule structure [1] = details: stated as 'has been shown'; cited from earlier work
MCF-7 tumor cells = experiment: Cell cycle analysis by flow cytometry; assay type: cell-based
Experimental: Cells were treated for 24 hours, incubated with 10 μM BrdU for 45 minutes at 37° C. Cells were then washed with ice-cold PBS, resuspended in 200 μl PBS and fixed with cold 70% ethanol. The cells were resuspended, incubated for 30 minutes in 2 N HCl/0.5% Triton X-100 in PBS, and neutralized by rinsing once in 0.1 M sodium tetraborate (pH 8.5). Fluorescein isothiocyanate (FITC)-conjugated anti-BrdU antibody (Becton Dickinson) was added (10 μg/sample) in 50 μl of 0.5% Tween 20/1% BSA in PBS and incubated for 30 minutes. The cells were washed and resuspended in 1 ml of PBS containing 5 μg/ml propidium iodide. Fluorescence intensity was determined by quantitative flow cytometry and profiles were generated on a Becton Dickinson FACScan. A minimum of 10,000 cells were analyzed.

microtubule structure [2] = experiment: Microtubule assay (indirect immunofluorescence); assay type: cell-based
Experimental: Microtubule structure was assessed by indirect immunofluorescence as previously described (Zhang, C. C. et al. 1998. Oncogene 16:1617-1624). Cells were grown on coverslips and fixed in ice-cold methanol at −20° C. after drug treatment. The cells were then incubated with a 1:100 dilution of monoclonal anti-alpha-tubulin antibody (Clone DM 1A, mouse ascites fluid; Sigma) in 3% BSA in PBS for 30 minutes and washed in 3% BSA in PBS for 10 minutes. This was followed by incubation with FITC-goat anti-mouse IgG (1:50 dilution) as a secondary antibody for 30 minutes and washed in 3% BSA/PBS and visualized under a epifluorescent microscope (Zeiss AXIOSKOP) using a plan-NEOFLUAR 100 X oil immersion objective. The photographs were captured on a cooled CCD camera (DAGE-MTI) using Scion Image.

MCF-7 cells = test system: MCF-7 cells
Experimental: The Apoalert Annexin V-EGFP method (CLONTECH, Palo Alto, Calif.) was used to assess for apoptosis. Briefly, tumor cells were treated for 2 hours and cells were washed with fixing solution and stained with Annexin V-EGFP and propidium iodide for 15 minutes in the dark. Cells were viewed using a Nikin Eclipse TE-200 (Nikon Corporation, Tokyo, Japan) inverted fluorescent microscope. Photographs were captured using a SPOT digital camera (Diagnostic, Inc., Sterling Heights, Mich.) in combination with SPOT […] (Pharmingen, San Diego, Calif.). Cells (1×10^6 per dish) were treated for 12 hours, washed with PBS, and fixed in 1% paraformaldehyde in ice for 30 minutes. After fixation, cells were washed twice with PBS and fixed in 70% ethanol. The pellets were washed and resuspended in 50 μl of the DNA labeling solution containing Br-dUTP and TdT enzyme and incubated for 60 minutes at 37° C. After incubation, the pellets were washed, incubated with FITC labeled anti-BrdU antibody in the dark for 30 minutes at room temperature, and stained with propidium iodide and RNase. The stained cells were analyzed by flow cytometry after 30 minutes. Cell viability was assessed by the tetrazolium dye method as previously described (Scudiero, D.A. et al. 1988. Cancer Res. 48:4827-4833).

With `O=C(CC(O)c1ccc(O[C@@H]2O[C@H](CO)[C@@H](O)[C@H](O)[C@H]2O)cc1)c1ccc(O)cc1O` (single isomer, unassigned; peak 1) [peak 1, 1-propanone-1-(2,4-dihydroxyphenyl)-3-hydroxy-3-(4′-hydroxyphenyl-4′o-beta-D-glucapyranoside)] as the compound, how does the bcl-2 phosphorylation (bcl-2) read?
Its bcl-2 phosphorylation is “induce bcl-2 phosphorylation”.

Which bcl-2 phosphorylation (bcl-2) does the source give for `O=C(CC(O)c1ccc(O)cc1)c1ccc(O[C@@H]2O[C@H](CO)[C@@H](O)[C@H](O)[C@H]2O)cc1O` (single isomer, unassigned; peak 2) [peak 2, 1-propanone-1-(2,4-dihydroxyphenyl-4′-o-beta-D-glucopyranoside)-3-hydroxy-3-(4′-hydroxyphenyl)] here?
Its bcl-2 phosphorylation is “induce bcl-2 phosphorylation”.

With `CC(=O)O[C@H]1C(=O)[C@@]2(C)[C@H]([C@H](OC(=O)c3ccccc3)[C@]3(O)C[C@H](OC(=O)[C@H](O)[C@@H](NC(=O)c4ccccc4)c4ccccc4)C(C)=C1C3(C)C)[C@]1(OC(C)=O)CO[C@@H]1C[C@@H]2O` [paclitaxel] as the compound, how does the “effect on microtubule structure” value (microtubule structure [1]) read?
The value was “induce microtubule bundles”.

For `O=C(CC(O)c1ccc(O)cc1)c1ccc(O)cc1O` (stereo not shown) [DC, 1-propanone-1-(2,4-dihydroxyphenyl)-3-hydroxy-3-(4′-hydroxyphenyl)], which “phosphorylation of bcl-2” value (bcl-2; DUPro-1 tumor cells) is on record?
Its value is “induce phosphorylation of bcl-2”.

What about the “phosphorylation of bcl-2” value (bcl-2; MCF-7 tumor cells) of the same compound?
The value was “induce phosphorylation of bcl-2”.

And the bcl-2 phosphorylation (bcl-2)?
The bcl-2 phosphorylation was “induce bcl-2 phosphorylation”.

What about the “G2/M cell cycle arrest” value (MCF-7 tumor cells) of the same compound?
The value was “induced a G2/M cell cycle arrest”.

What about the “effect on microtubule structure” value (microtubule structure [2]) of the same compound?
Its value is “induce microtubule fragmentation”.

What about the pIC50 (MCF-7 cells; read-out: IC50, decrease of cell viability, 72 hours) of the same compound?
Its pIC50 is 4.89.

And the “apoptosis (extracellular phosphatidylserine detection)” value (MCF-7 cells; similar to 10 μM camptothecin control)?
Its value is “induced apoptosis”.
